Assay results taken from ChEMBL document CHEMBL1201862, “PubChem BioAssay data set” (2004).
Counter-ions that a name gives are not always drawn.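 The compound was tested at five concentrations on cells cultured in 96-well plates, with a 48-hour exposure period. GI50: concentration for 50% inhibition of growth.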 Calls of active or inactive are those of the source. No stated cut-off is given here; in the data, active = GI50 up to about 1.1 µM and inactive = higher.

What was measured:
Test in all cases: inhibition of tumour cell growth, NCI panel, 48 h
DMS-273 = test system: DMS-273
MDA-N = test system: MDA-N
SR = test system: SR
PC-3 = test system: PC-3
A498 = test system: A498
CAKI-1 = test system: CAKI-1
LOX IMVI = test system: LOX IMVI
DLD-1 = test system: DLD-1
SF-268 = test system: SF-268
UACC-62 = test system: UACC-62
TK-10 = test system: TK-10
BT-549 = test system: BT-549
SK-MEL-2 = test system: SK-MEL-2
HL-60 = test system: HL-60
NCI/ADR-RES = test system: NCI/ADR-RES
HOP-62 = test system: HOP-62
T47D = test system: T47D
MCF7 = test system: MCF7
M14 = test system: M14
CCRF-CEM = test system: CCRF-CEM

Row | SMILES | GI50 (DMS-273) | GI50 (MDA-N) | GI50 (SR) | GI50 (PC-3) | GI50 (A498) | GI50 (CAKI-1) | GI50 (LOX IMVI) | GI50 (DLD-1) | GI50 (SF-268) | GI50 (UACC-62) | GI50 (TK-10) | GI50 (BT-549) | GI50 (SK-MEL-2) | GI50 (HL-60) | GI50 (NCI/ADR-RES) | GI50 (HOP-62) | GI50 (T47D) | GI50 (MCF7) | GI50 (M14) | GI50 (CCRF-CEM)
1 | CS(=O)(=O)OCCN(CCOS(C)(=O)=O)c1ccc(/C=N/c2ccc(-c3csc(COc4ccccc4)n3)cc2)cc1 | 460 nM (active) | 11000 nM (inactive) | 222 nM (active) | 7060 nM (inactive) | 2600 nM (inactive) | 853 nM (active) | 4270 nM (inactive) | 13100 nM (inactive) | 2490 nM (inactive) | 1870 nM (inactive) | 3050 nM (inactive) | 10700 nM (inactive) | 15700 nM (inactive) | 817 nM (active) | 10100 nM (inactive) | 1320 nM (inactive) | 1320 nM (inactive) | 5420 nM (inactive) | 5600 nM (inactive) | 587 nM (active)
2 | CC1(C)S[C@@H]2[C@H](NC(=O)CCC[C@@H](N)C(=O)O)C(=O)N2[C@H]1C(=O)O [ADICILLIN] | > 50000 nM (inactive) | – | – | – | > 44700 nM (inactive) | > 50000 nM (inactive) | > 50000 nM (inactive) | > 50000 nM (inactive) | > 50000 nM (inactive) | > 50000 nM (inactive) | – | – | > 50000 nM (inactive) | > 50000 nM (inactive) | > 31600 nM (inactive) | > 50000 nM (inactive) | – | > 50000 nM (inactive) | – | > 50000 nM (inactive)
3 | O=C1c2c(O)cccc2-c2nn(CCNCCO)c3ccc(NCCNCCO)c1c23 [LOSOXANTRONE HYDROCHLORIDE] | 28.8 nM (active) | 480 nM (active) | < 10 nM (active) | 160 nM (active) | < 11.3 nM (active) | 55.2 nM (active) | 66.7 nM (active) | 1240 nM (inactive) | 31.6 nM (active) | < 45.1 nM (active) | 685 nM (active) | 182 nM (active) | 436 nM (active) | < 10 nM (active) | 8280 nM (inactive) | < 16.9 nM (active) | 105 nM (active) | < 10 nM (active) | 244 nM (active) | < 10 nM (active)
